Laboratory results as given in article PMC6443726, “The unfolded protein response modulators GSK2606414 and KIRA6 are potent KIT inhibitors” (Cell Death & Disease, 2019).

Target: T1, KIT (Homo sapiens, UniProt P10721)
T1 construct: recombinant cytoplasmic portion of KIT, wild type (ProQinase #0997-0000-1)
Experiment: MicroScale Thermophoresis (MST)
Assay type: binding

T1 sequence (P10721 544-976 limits assumed): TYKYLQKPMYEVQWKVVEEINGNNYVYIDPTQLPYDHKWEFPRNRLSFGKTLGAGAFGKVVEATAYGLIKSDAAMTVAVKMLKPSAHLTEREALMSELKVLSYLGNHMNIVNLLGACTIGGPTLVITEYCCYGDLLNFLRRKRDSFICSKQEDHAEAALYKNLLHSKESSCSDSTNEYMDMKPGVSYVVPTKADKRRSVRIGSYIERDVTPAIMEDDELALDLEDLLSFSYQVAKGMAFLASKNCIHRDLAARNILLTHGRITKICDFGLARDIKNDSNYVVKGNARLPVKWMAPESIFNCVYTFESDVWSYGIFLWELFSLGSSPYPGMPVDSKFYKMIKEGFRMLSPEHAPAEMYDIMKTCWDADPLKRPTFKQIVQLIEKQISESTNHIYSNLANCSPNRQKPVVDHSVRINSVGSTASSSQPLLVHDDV

Row | SMILES | Kd
1 | Cn1cc(-c2ccc3c(c2)CCN3C(=O)Cc2cccc(C(F)(F)F)c2)c2c(N)ncnc21 [GSK414, 7-methyl-5-(1-{[3-(trifluoromethyl)phenyl]acetyl}-2,3-dihydro-1H-indol-5-yl)-7H-p yrrolo[2,3-d]pyrimidin-4-amine] | 0.664 ± 0.294 µM
2 | CC(C)(C)c1nc(-c2ccc(NC(=O)Nc3cccc(C(F)(F)F)c3)c3ccccc23)c2c(N)nccn12 [KIRA6] | 10.8 ± 2.9 µM
